Assays:
[1] = biological target: T1, Human Neuropeptide Y2 Receptor (Homo sapiens, UniProt P49146); test: Radioligand binding competition assay (RLB); conditions: Table 3, 125I-PYY(1-36) competition; read-out: Ki
T1 construct: purchased CHEMICON HTS066M
T1 sequence (P49146 1-381): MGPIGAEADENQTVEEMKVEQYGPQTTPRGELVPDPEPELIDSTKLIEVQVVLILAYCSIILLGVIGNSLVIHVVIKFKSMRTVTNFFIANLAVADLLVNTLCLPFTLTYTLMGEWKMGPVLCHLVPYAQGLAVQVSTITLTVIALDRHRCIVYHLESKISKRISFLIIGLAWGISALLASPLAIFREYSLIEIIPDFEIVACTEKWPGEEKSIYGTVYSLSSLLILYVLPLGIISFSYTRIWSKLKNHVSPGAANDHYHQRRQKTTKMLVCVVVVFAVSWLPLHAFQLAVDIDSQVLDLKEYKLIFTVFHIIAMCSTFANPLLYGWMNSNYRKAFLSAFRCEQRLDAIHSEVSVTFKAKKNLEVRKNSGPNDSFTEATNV
How it was run: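 Peptides were serially diluted from 1 mM DMSO stocks and competed for radioligand binding to receptor membranes (0.5 μg/well) over 2 h at room temperature, pH 7.4 HEPES buffer. Bound radioactivity on filters was counted by scintillation, and IC50 was derived by nonlinear regression.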

[2] = Solubility determination; conditions: for Sol6: pH 6; for Sol7: pH 7
How it was run: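 Solubility is derived from the ratio of reversed-phase peak areas, filtered sample over a control dissolved at 1 mg/ml in 50% acetonitrile. Peptides are agitated for 2 hours at room temperature in 0.1 M sodium diphosphate at pH 6.4 or 7.0, aiming at 10 mg/ml.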

SMILES | Ki [1] [nM] | Sol6 [2] [mg/mL] | Sol7 [2] [mg/mL]
CC[C@H](C)[C@H](NC(=O)[C@H](CCC(=O)O)NC(=O)[C@H](CCC(=O)O)NC(=O)[C@@H]1CCCN1C(=O)[C@H](CC(C)C)NC(=O)[C@H](C)NC(=O)[C@H](CC(=O)O)NC(=O)[C@H](CCC(=O)O)NC(=O)[C@H](CCC(=O)O)NC(=O)[C@@H]1CCCN1C(=O)[C@H](CCCCNC(=O)CCCCCNC(=O)CC[C@H](NC(=O)CCCCCCCCCCCCCCCCC(=O)O)C(=O)O)NC(=O)[C@H](CCC(=O)O)NC(=O)[C@@H]1CCCN1C(=O)[C@H](C)NC(=O)CC(C)C)C(=O)N[C@@H](CCC(N)=O)C(=O)N[C@@H](CCCNC(=N)N)C(=O)N[C@@H](Cc1ccc(O)cc1)C(=O)N[C@@H](Cc1ccc(O)cc1)C(=O)N[C@H](C(=O)N[C@@H](CO)C(=O)N[C@@H](CC(C)C)C(=O)N[C@@H](CCCNC(=N)N)C(=O)N[C@@H](Cc1c[nH]cn1)C(=O)N[C@@H](Cc1ccc(O)cc1)C(=O)N[C@@H](Cc1ccc(O)cc1)C(=O)N[C@@H](CC(N)=O)C(=O)N[C@@H](Cc1c[nH]c2ccccc12)C(=O)N[C@@H](CC(C)C)C(=O)N[C@H](C(=O)N[C@@H](CCCNC(=N)N)C(=O)N[C@@H](CCC(N)=O)C(=O)N[C@@H](CCCNC(=N)N)C(=O)N[C@@H](Cc1ccc(O)cc1)C(N)=O)[C@@H](C)O)C(C)C [Compound 142, N{alpha-4}-(3-methylbutanoyl)-N{epsilon-7}-(6-[(4S)-4-carboxy-4-(17-carboxyheptadecanamido)butanamido]hexanoyl)-[4A,7K,9E,13L,17I,18Q,22V,28Y,30W,31L]-hPYY(4-36)] | 3.97 | >10.0 | >10.0
CC(C)CC(=O)N[C@@H](C)C(=O)N1CCC[C@H]1C(=O)N[C@@H](CCC(=O)O)C(=O)N[C@@H](CCCCNC(=O)CCCCCNC(=O)CC[C@H](NC(=O)CCCCCCCCCCCCCCCCC(=O)O)C(=O)O)C(=O)N1CCC[C@H]1C(=O)N[C@@H](CCC(=O)O)C(=O)N[C@@H](CCC(=O)O)C(=O)N[C@@H](CC(=O)O)C(=O)N[C@@H](CO)C(=O)N[C@H](C(=O)N1CCC[C@H]1C(=O)N[C@@H](CCC(=O)O)C(=O)N[C@@H](CCC(=O)O)C(=O)N[C@@H](CC(C)C)C(=O)N[C@@H](CCC(N)=O)C(=O)N[C@@H](CCCNC(=N)N)C(=O)N[C@@H](Cc1ccc(O)cc1)C(=O)N[C@@H](Cc1ccc(O)cc1)C(=O)N[C@H](C(=O)N[C@@H](CO)C(=O)N[C@@H](CC(C)C)C(=O)N[C@@H](CCCNC(=N)N)C(=O)N[C@@H](Cc1c[nH]cn1)C(=O)N[C@@H](Cc1ccc(O)cc1)C(=O)N[C@@H](Cc1ccc(O)cc1)C(=O)N[C@@H](CC(N)=O)C(=O)N[C@@H](Cc1c[nH]c2ccccc12)C(=O)N[C@@H](CC(C)C)C(=O)N[C@H](C(=O)N[C@@H](CCCNC(=N)N)C(=O)N[C@@H](CCC(N)=O)C(=O)N[C@@H](CCCNC(=N)N)C(=O)N[C@@H](Cc1ccc(O)cc1)C(N)=O)[C@@H](C)O)C(C)C)[C@@H](C)O [Compound 143, N{alpha-4}-(3-methylbutanoyl)-N{epsilon-7}-(6-[(4S)-4-carboxy-4-(17-carboxyheptadecanamido)butanamido]hexanoyl)-[4A,7K,9E,12S,13T,18Q,22V,28Y,30W,31L]-hPYY(4-36)] | 3.42 | 10.0 | >10.0

— patent US12391737B2, “Soluble NPY2 receptor agonists” (Boehringer Ingelheim International GmbH, priority 2020, dated 2025)
